Values joined by “and” are separate entries in the source; they are usually repeats but may differ in a detail not shown here. Equal entries are not always repeated. Inconclusive results and toxic doses are left out.

For experiment [1], the system named is BDF1 mice, P388 leukemia ip. Put plainly: NCI In Vivo Anticancer Drug Screen. Data for tumor model P388 Leukemia (intraperitoneal) in B6D2F1 (BDF1) mice. The settings on record: endpoint: mean survival time, schedule: Q02DX003 (ip), vehicle: saline, higher = longer survival. In outline: (§1)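 Survival ratio, drug arm over vehicle arm, in mice with a transplanted tumour.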

Experiment [2] deals with BDF1 mice, P388 leukemia ip, median survival T/C. The experiment is described as above. The settings on record: endpoint: median survival time, higher = longer survival. The method, boiled down: as §1
[3] abbreviates: dose: 12.5 mg/kg/injection, schedule: Q01DX009 (ip), vehicle: water.
Setting [4] is: dose: 12.5 mg/kg/injection, schedule: Q04DX003 (ip), vehicle: water.
Setting [5] is: dose: 25.0 mg/kg/injection, schedule: Q01DX009 (ip), vehicle: water.
[6] abbreviates: dose: 25.0 mg/kg/injection, schedule: Q04DX003 (ip), vehicle: water.
Where [7] appears, read: dose: 50.0 mg/kg/injection, schedule: Q01DX009 (ip), vehicle: water.
Where [8] appears, read: dose: 50.0 mg/kg/injection, schedule: Q04DX003 (ip), vehicle: water.
[9] abbreviates: dose: 100.0 mg/kg/injection, schedule: Q01DX009 (ip), vehicle: water.
Where [10] appears, read: dose: 100.0 mg/kg/injection, schedule: Q04DX003 (ip), vehicle: water.
The mark [11] stands for this setting: dose: 200.0 mg/kg/injection, schedule: Q01DX009 (ip), vehicle: water.
Where [12] appears, read: dose: 50.0 mg/kg/injection, schedule: Q01DX009 (ip), vehicle: saline with Tween-80.
Where [13] appears, read: dose: 100.0 mg/kg/injection, schedule: Q01DX009 (ip), vehicle: saline with Tween-80.
Where [14] appears, read: dose: 50.0 mg/kg/injection, schedule: Q01DX009 (ip), vehicle: saline.
Where [15] appears, read: dose: 50.0 mg/kg/injection, schedule: Q04DX003 (ip), vehicle: saline with Tween-80.
Setting [16] is: dose: 100.0 mg/kg/injection, schedule: Q01DX009 (ip), vehicle: saline.
Where [17] appears, read: dose: 100.0 mg/kg/injection, schedule: Q04DX003 (ip), vehicle: saline with Tween-80.
Setting [18] is: dose: 200.0 mg/kg/injection, schedule: Q01DX009 (ip), vehicle: saline.
Where [19] appears, read: dose: 400.0 mg/kg/injection, schedule: Q04DX003 (ip), vehicle: saline with Tween-80.
Where [20] appears, read: dose: 400.0 mg/kg/injection, schedule: Q01DX009 (ip), vehicle: saline with Tween-80.
Setting [21] is: dose: 200.0 mg/kg/injection, schedule: Q04DX003 (ip), vehicle: saline with Tween-80.
Setting [22] is: dose: 200.0 mg/kg/injection, schedule: Q01DX009 (ip), vehicle: saline with Tween-80.
Setting [23] is: dose: 100.0 mg/kg/injection, schedule: Q04DX003 (ip), vehicle: saline.
[24] abbreviates: dose: 200.0 mg/kg/injection, schedule: Q04DX003 (ip), vehicle: saline.
Setting [25] is: dose: 400.0 mg/kg/injection, schedule: Q04DX003 (ip), vehicle: saline.

As to `CC1=C(C)C(=O)O[C@@H]([C@](C)(O)[C@]2(O)CC[C@@]3(O)[C@@H]4C[C@H]5O[C@]56CC=CC(=O)[C@]6(C)[C@H]4CC[C@]23C)C1`, the T/C in experiment [1] (dose: 50.0 mg/kg/injection) is 114 % of control; in experiment [1] (dose: 100.0 mg/kg/injection) it was 117 % of control.

As for `C#CCOCC(O)CO` (stereo not given), the T/C in experiment [2] (dose: 6.25 mg/kg/injection, schedule: Q01DX009 (ip), vehicle: water) is 88 % of control; in experiment [2] (setting [3]) it was 106 % of control; in experiment [2] (setting [4]), 93 % of control; in experiment [2] (setting [5]) it was 117 % of control; in experiment [2] (setting [6]), 111 % of control; in experiment [2] (setting [7]) it was 117 % of control and 123 % of control. Moreover, the T/C in experiment [2] (setting [8]) is 95 % of control; in experiment [2] (setting [9]), 95 % of control and 122 % of control; in experiment [2] (setting [10]), 98 % of control; in experiment [2] (setting [11]), 110 % of control.

For `Cc1cc(C)[n+](C)c2cc3ccccc3cc12`, the T/C in experiment [2] (dose: 50.0 mg/kg/injection, schedule: Q01DX005 (ip), vehicle: saline with Tween-80) was 155 % of control.

`CCOC(=O)/C(C#N)=C/N(C)Cc1ccccc1`: the T/C was 108 % of control in experiment [2] (setting [12]) and 105 % of control in experiment [2] (setting [13]).

For `C#CCOCC(CCl)OC(=O)Nc1ccccc1` (stereo not given), the T/C was 95 % of control in experiment [2] (dose: 25.0 mg/kg/injection, schedule: Q01DX009 (ip), vehicle: saline); 104 % of control in experiment [2] (setting [14]); 87 % of control in experiment [2] (setting [15]); 104 % of control in experiment [2] (setting [16]); 95 % of control in experiment [2] (setting [17]); 109 % of control in experiment [2] (setting [18]). Moreover, the T/C in experiment [2] (setting [19]) was 100 % of control.

As to `Cc1ccc2c(c1)N=Cc1ccccc1O2`, the T/C in experiment [2] (dose: 50.0 mg/kg/injection, schedule: Q01DX009 (ip), vehicle: saline + alcohol) was 104 % of control; in experiment [2] (dose: 100.0 mg/kg/injection, schedule: Q01DX009 (ip), vehicle: saline + alcohol), 110 % of control; in experiment [2] (dose: 200.0 mg/kg/injection, schedule: Q01DX009 (ip), vehicle: saline + alcohol) it was 106 % of control.

As for `O=C(Oc1cc(Cl)ccc1Cl)c1ccccc1`, the T/C is 122 % of control in experiment [2] (setting [12]), 89 % of control in experiment [2] (setting [13]) and 89 % of control in experiment [2] (setting [20]).

For `COc1cc2cnc3c4cc5c(cc4ccc3c2cc1OC)OCO5`, the T/C in experiment [2] (dose: 20.0 mg/kg/injection, schedule: Q01DX009 (ip), vehicle: saline with Tween-80) is 95 % of control; in experiment [2] (dose: 40.0 mg/kg/injection, schedule: Q01DX009 (ip), vehicle: saline with Tween-80) it was 105 % of control; in experiment [2] (dose: 80.0 mg/kg/injection, schedule: Q01DX009 (ip), vehicle: saline with Tween-80) it was 105 % of control; in experiment [2] (dose: 120.0 mg/kg/injection, schedule: Q01DX009 (ip), vehicle: saline with Tween-80) it was 95 % of control; in experiment [2] (dose: 240.0 mg/kg/injection, schedule: Q01DX009 (ip), vehicle: saline with Tween-80), 110 % of control.

Consider `N#Cc1ccc(C(=O)CC(O)(C(F)(F)F)C(F)(F)F)cc1`, for which the T/C was 104 % of control in experiment [2] (dose: 66.0 mg/kg/injection, schedule: Q04DX003 (ip), vehicle: saline with Tween-80); 95 % of control in experiment [2] (setting [17]); 104 % of control in experiment [2] (dose: 150.0 mg/kg/injection, schedule: Q04DX003 (ip), vehicle: saline with Tween-80); 100 % of control in experiment [2] (setting [21]); 95 % of control in experiment [2] (setting [19]).

Regarding `CCOC(c1ccccc1)(c1ccccc1)c1ccccc1`, the T/C in experiment [2] (dose: 100.0 mg/kg/injection, schedule: Q04DX003 (ip), vehicle: other) is 105 % of control; in experiment [2] (dose: 200.0 mg/kg/injection, schedule: Q04DX003 (ip), vehicle: other) it was 105 % of control; in experiment [2] (dose: 400.0 mg/kg/injection, schedule: Q04DX003 (ip), vehicle: other), 110 % of control.

Consider `C/C=C/C(OCC)OCC`, for which the T/C in experiment [2] (dose: 6.25 mg/kg/injection, schedule: Q04DX003 (ip), vehicle: water) was 95 % of control; in experiment [2] (setting [3]), 105 % of control; in experiment [2] (setting [4]), 91 % of control; in experiment [2] (setting [5]) it was 91 % of control; in experiment [2] (setting [6]) it was 92 % of control; in experiment [2] (setting [7]), 100 % of control. Moreover, the T/C in experiment [2] (setting [8]) was 105 % of control; in experiment [2] (setting [9]), 98 % of control; in experiment [2] (setting [10]) it was 113 % of control; in experiment [2] (setting [11]), 109 % of control; in experiment [2] (dose: 200.0 mg/kg/injection, schedule: Q04DX003 (ip), vehicle: water) it was 111 % of control and 113 % of control; in experiment [2] (dose: 300.0 mg/kg/injection, schedule: Q04DX003 (ip), vehicle: water), 111 % of control.

In the case of `C=CCNC(=S)Nc1ccc(N(C)C)cc1`, the T/C in experiment [2] (setting [15]) was 100 % of control; in experiment [2] (setting [17]), 95 % of control; in experiment [2] (setting [21]), 109 % of control.

`Cc1nc2ccccc2nc1CC(O)(c1ccccc1)c1ccccc1`: the T/C was 97 % of control in experiment [2] (setting [12]), 103 % of control in experiment [2] (setting [13]) and 100 % of control in experiment [2] (setting [22]).

On to `O=S(=O)(O)CNc1ccccc1`, for which the T/C in experiment [2] (setting [23]) was 100 % of control; in experiment [2] (setting [24]), 109 % of control; in experiment [2] (setting [25]) it was 95 % of control.

`CC(=O)N1c2cc3ccccc3cc2N(C(C)=O)c2cc3ccccc3cc21`: the figures for the T/C in experiment [2] (setting [13]), in experiment [2] (setting [22]) and in experiment [2] (setting [20]) were 102 % of control, 97 % of control and 117 % of control, respectively.

Take `CCCCCCSc1ncnc2nc[nH]c12`: the T/C was 109 % of control in experiment [2] (setting [13]); 100 % of control in experiment [2] (setting [17]); 100 % of control in experiment [2] (setting [22]); 100 % of control in experiment [2] (setting [21]); 95 % of control in experiment [2] (setting [19]).

Take `CC#CC#C/C=C1\OC2(CCCCO2)C(O)C1OC(=O)CC(C)C` (stereo not given): the T/C in experiment [2] (dose: 10.0 mg/kg/injection, schedule: Q01DX009 (ip), vehicle: Klucel (hydroxypropylcellulose) (HPC)) was 100 % of control; in experiment [2] (dose: 20.0 mg/kg/injection, schedule: Q01DX009 (ip), vehicle: Klucel (hydroxypropylcellulose) (HPC)) it was 102 % of control; in experiment [2] (dose: 40.0 mg/kg/injection, schedule: Q01DX009 (ip), vehicle: Klucel (hydroxypropylcellulose) (HPC)), 111 % of control.

`CCOC(=O)/C(C)=C\c1c(C)[nH]c(=O)[nH]c1=O`: the T/C in experiment [2] (setting [14]) is 102 % of control; in experiment [2] (dose: 50.0 mg/kg/injection, schedule: Q04DX003 (ip), vehicle: saline) it was 104 % of control; in experiment [2] (setting [16]), 103 % of control; in experiment [2] (setting [23]), 100 % of control; in experiment [2] (setting [18]), 99 % of control; in experiment [2] (setting [24]), 95 % of control and 100 % of control. Further, the T/C was 96 % of control in experiment [2] (dose: 400.0 mg/kg/injection, schedule: Q01DX009 (ip), vehicle: saline); 91 % of control and 95 % of control in experiment [2] (setting [25]).

On to `COc1c(OC)c(OC)c(C(=O)/C=C/c2ccccc2)c(OC)c1OC`, for which the T/C in experiment [2] (dose: 25.0 mg/kg/injection, schedule: Q01DX009 (ip), vehicle: saline with Tween-80) was 104 % of control; in experiment [2] (setting [12]) it was 104 % of control; in experiment [2] (setting [13]), 99 % of control.

Regarding `N#CCC(=O)O`, the T/C is 100 % of control in experiment [2] (dose: 18.75 mg/kg/injection, schedule: Q01DX009 (ip), vehicle: saline with Tween-80); 100 % of control in experiment [2] (dose: 37.5 mg/kg/injection, schedule: Q01DX009 (ip), vehicle: saline with Tween-80); 90 % of control in experiment [2] (dose: 75.0 mg/kg/injection, schedule: Q01DX009 (ip), vehicle: saline with Tween-80).

As for `COc1ccc(C(O)(CS(C)(=O)=O)c2cccs2)cc1` (stereo not given), the figures for the T/C in experiment [2] (setting [12]), in experiment [2] (setting [13]) and in experiment [2] (setting [22]) were 110 % of control, 110 % of control and 103 % of control, respectively.

The record behind these values is PubChem BioAssay AID328 (DTP/NCI, 2004).
